Here are results for 7 compounds from US20240150396A1 (The Texas A&M University System, priority 2021, published 2024).

The subject of data set [1] is T. b. brucei bloodstream forms. As to the kind of experiment: Growth of axenic cultures of T. b. brucei bloodstream forms (BSFs).
Protocol: Selected cruzain inhibitors were evaluated in axenic cell cultures of T. b. brucei and T. cruzi. Procyclic trypomastigotes of T. b. brucei (ATCC PRA-381) were grown in the SDM-79 medium at 26° C., and bloodstream forms (ATCC PRA-383) were grown at 37° C. in the HMI-9 medium at 5% C02. […] Both forms of T. b. brucei and T. cruzi were grown in media containing 10% fetal bovine serum (FBS) and penicillin/streptomycin (50 U mL^−1). […] Control samples contained equal amounts of DMSO. T. b. brucei and T. cruzi (5 mL in flask cultures) were seeded at ˜3×10^6 cells and diluted daily, maintaining a mid-log growth phase for up to 120 h. […] After each cell dilution, fresh compound or an equal volume of DMSO (control samples) was supplemented into the cultures, while maintaining a constant concentration of each inhibitor. Cell counts were scored using a Z2 Coulter Counter.
In vitro Cell Assays. Bloodstream form T. b. brucei strain SM427 was grown in HM1-9 medium that included fetal bovine serum (10%) and antibiotics (100 U/mL penicillin-streptomycin, Gibco™). Inhibitors dissolved in 100% (v/v) DMSO stock solutions were added at final concentrations of 0.5-20 μM (final concentrations of DMSO were <1% (v/v)). T. b. brucei were seeded at ˜1×10^6 cells at 37° C., and diluted daily to maintain a log phase of growth for up to 96 h. […] After each dilution, the cell cultures were supplemented with inhibitor or DMSO (control) to keep concentrations constant. Cell density was determined and graphed as previously reported.^36 Trypanosomes were quantified using a Z2 Coulter Counter, and values of EC50 were determined after 3-4 days of treatment by the interpolation method of Huber and Koella.^37
The nature of data set [2]: Host cell cytotoxicity in the T. cruzi infection model. As to conditions: mouse; host cardiomyoblasts; read-out: C2C12 Cytotoxicity CC50. The class given is cell-based, mouse. How it is done: (§1) The plates were incubated at 37° C. for 48 h, and the wells were fixed with 2% paraformaldehyde in PBS and stained with 5 μg mL-1 4,6-diamidino-2-phenylindole. After at least 30 min of incubation at room temperature in the dark, the plates were read in an automated microscope, ImageXpress Micro XL (Molecular Devices), and the images were analyzed by custom-built software to quantify and assess viability of the parasites, as well as the host cells independently. The compilation of data was used to calculate the antiparasitic activity (EC50) and host cytotoxicity (CC50).
T. cruzi infection was evaluated in C2C12 murine cardiomyoblast cells. […] The wells were fixed with 2% PFA in PBS, and stained by 5 μg/ml of DAPI. After >30 min of incubation in a dark environment, the plates were read on an ImageXpress MicroXL microscope (Molecular Devices). The images were analyzed to quantify parasites as well host cells.

The subject of data set [3] is T. cruzi epimastigotes (strain Y). In words: Growth of axenic cultures of T. cruzi epimastigotes. As to conditions: for EC50: Trypanosoma cruzi, read-out: T. cruzi axenic culture EC50, epimastigotes; for T. cruzi axenic culture EC50: epimastigotes.
Protocol: Selected cruzain inhibitors in axenic cell cultures of Trypanosoma brucei brucei (procyclic trypomastigotes; ATCC PRA-381) and Trypanosoma cruzi (epimastigote forms; strain Y, ATCC 50832GFP) were tested. T. b. brucei is grown in SDM-79 medium, and T. cruzi is grown in ATCC medium (1029 LIT medium). Both media included fetal calf serum (10%) and penicillin/streptomycin (50 U/mL). […] T. brucei and T. cruzi (5 mL in flask cultures) at 26° C. were seeded at ˜3×10^6 cells, and diluted daily maintaining a mid-log growth phase for up to 100 hrs. Cell counts were scored using a Z2 Coulter Counter. After each cell dilution, fresh compound or an equal volume of DMSO (control samples), was supplemented into the cultures. […] Cruzain inhibitors where the highest concentration reflects the upper limit of solubilities of the inhibitors in 1% (v/v) DMSO solutions were evaluated. These inhibitors are likely to bind to proteins in fetal calf serum, and for these reasons, fresh inhibitors were added each time cells were re-fed.
Selected cruzain inhibitors were evaluated in axenic cell cultures of T. b. brucei and T. cruzi. Procyclic trypomastigotes of T. b. brucei (ATCC PRA-381) were grown in the SDM-79 medium at 26° C., and bloodstream forms (ATCC PRA-383) were grown at 37° C. in the HMI-9 medium at 5% C02. T. cruzi (epimastigote forms, strain Y, ATCC 50832GFP) was grown in the ATCC medium (1029 LIT medium). Both forms of T. b. brucei and T. cruzi were grown in media containing 10% fetal bovine serum (FBS) and penicillin/streptomycin (50 U mL^−1). […] Control samples contained equal amounts of DMSO. T. b. brucei and T. cruzi (5 mL in flask cultures) were seeded at ˜3×10^6 cells and diluted daily, maintaining a mid-log growth phase for up to 120 h. […] After each cell dilution, fresh compound or an equal volume of DMSO (control samples) was supplemented into the cultures, while maintaining a constant concentration of each inhibitor. Cell counts were scored using a Z2 Coulter Counter.
Data set [4] deals with T. cruzi (Ca-I/72) in C2C12 murine cardiomyoblasts. In words: T. cruzi-infected murine cardiomyoblasts (C2C12). As to conditions: read-out: EC50 T. cruzi-infected cardiomyoblasts. The class given is cell-based, Trypanosoma cruzi. How it is done: as §1, with “For the evaluation of the antitrypanocidal activity of cruzain inhibitors, we infected a C2C12 mouse cardiomyoblast cell line (ATCC CRL-1772) with T. cruzi strain Ca-I/72 (a gift from James Dvorak, National Institutes of Health) in […] plates. […] The plates” for “The plates”
T. cruzi infection was evaluated in C2C12 murine cardiomyoblast cells. 384-microwell plates containing C2C12 murine cardiomyoblast cells were infected with 10^3 and 10^4 cells of T. cruzi (Ca-I/72), to which was added 3-fold serially-dilutions of inhibitor with maximal concentrations of 10 μM, followed by incubation at 37° C. for 2 days. The wells were fixed with 2% PFA in PBS, and stained by 5 μg/ml of DAPI. After >30 min of incubation in a dark environment, the plates were read on an ImageXpress MicroXL microscope (Molecular Devices). The images were analyzed to quantify parasites as well host cells.

Data set [5] concerns the target T1, cruzain (Trypanosoma cruzi, UniProt P25779). In words: biochemical. As to conditions: pH 7.5. The gist of the method: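 Fluorogenic assay at 25 °C following AMC release (ex 360/em 460 nm), with typically 0.2 nM cruzain and 10% DMSO, at pH 7.5 or 5.5 buffer with 5 mM DTT.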
The target of data set [6] is human cathepsin L (Homo sapiens (Human), UniProt P07711). As to the kind of experiment: Human cathepsin L inhibition, Z-FR-AMC assay. The class given is biochemical. As to conditions: pH 5.5, 25° C. How it is done: (§2) Recombinant human cathepsins B and L were purchased from Millipore Sigma and used without further treatment. The solid proteins were dissolved into a solution of 50 mM sodium acetate (pH 5.5), 1 mM EDTA, 1 mM CHAPS, 10% (v/v) DMSO, and 5 mM DTT to final concentrations of […] in 20-mL aliquots, and stored at −80° C. until needed. These samples were then diluted into the same buffer to concentrations of −100 nM, and these dilutions were stored at 4° C. and used daily until depletion.
human cathepsin L, sequence (P07711 114-333): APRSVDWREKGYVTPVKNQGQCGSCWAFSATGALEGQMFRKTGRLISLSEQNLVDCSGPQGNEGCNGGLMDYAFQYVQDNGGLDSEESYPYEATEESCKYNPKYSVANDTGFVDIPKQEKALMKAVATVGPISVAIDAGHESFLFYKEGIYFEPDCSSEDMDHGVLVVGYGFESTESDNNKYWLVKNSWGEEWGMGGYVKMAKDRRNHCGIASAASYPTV
(§3) For assays of cathepsin L and B, inhibitors were evaluated in 0.25-mL reaction mixtures containing a buffer of sodium acetate (pH 5.5), 1 mM CHAPS, 1 mM Na2EDTA, and 5 mM DTT at 25° C. The fluorogenic substrate Cbz-Phe-Arg-7-amino-4-methyl-coumarin (Z-FR-AMC) was dissolved in 100% DMSO, as were all inhibitors, and aliquots of both substrates and inhibitors were added to reaction mixtures to final concentrations of DMSO of 10% (v/v). […] Formation of the fluorescent product AMC was monitored over 30-60-minute time courses for reaction mixtures in 96-well black microplates (Corning Costar®). Rates of peptidolysis of the dipeptide-AMC substrate(s) were measured on either a SpectraMax M5 (Molecular Devices) or a Synergy HTX (Biotek, Wisnooki, VT) microplate reader with λex=360 nm, λem=460 nm in ≥8-sec intervals. Control samples excluded substrate. The measured relative fluorescence units (RFUs) of generated AMC were converted to reaction rates of μM/s by use of a standard curve of known AMC concentrations obtained for both plate readers.

Data set [7] concerns human dermal fibroblasts. In words: Human cell toxicity, resazurin viability. Format: cell-based. As to conditions: human dermal fibroblasts; read-out: Human Cell Cytotoxicity CC50. How it is done:
Primary human dermal fibroblast (HDF) cells were used to evaluate human cell toxicity of cruzain inhibitors. HDF cells were plated in a 384-well plate at 2400 cells per well (62,000 cells mL^−1). Inhibitors in 100% DMSO were added in duplicate to final concentrations of 0.001-0.1 mM and 1% DMSO (v/v) with 1% DMSO as a control sample, and cells were cultured at 37° C. for 48 h, followed by the addition of resazurin. Cell viability was then assessed by reading of fluorescence (excitation/emission: 544 nm/590 nm) after an additional 24 h of incubation.

Data set [8] addresses human cathepsin B (Homo sapiens (Human), UniProt P07858). In words: Human cathepsin B inhibition, Z-FR-AMC assay. As to conditions: pH 5.5, 25° C. The class given is biochemical. How it is done:
as §2, §3

Data set [9] relates to T. b. brucei procyclic forms. As to the kind of experiment: Growth of axenic cultures of T. b. brucei procyclic forms (PCFs). The class given is cell-based, Trypanosoma brucei brucei. As to conditions: axenic culture, read-out: EC50 T. b. brucei PCF.
Data set [10] relates to trypanosomes (T. b. brucei, T. cruzi). In words: Anti-trypanosomal activity, culture not stated. Format: cell-based. As to conditions: culture (T. b. brucei PCF/BSF or T. cruzi-infected cardiomyoblasts) not stated.
Data set [11] concerns the target SARS-CoV-2 3CL protease (Severe acute respiratory syndrome coronavirus 2 (2019-nCoV) (SARS-CoV-2), UniProt P0DTD1). In words: biochemical. As to conditions: for Ki: read-out: Ki* 3CLpro. Format: biochemical.
For data set [12], the system named is SARS-CoV-2 in Vero E6 cells. In words: Anti-CoV-2 activity in Vero E6 cells. Format: cell-based.
The target in data set [13] is T1, cruzain. As to conditions: 2% DMSO, from Ref. 40; cited from earlier work.
The target of data set [14] is T1, cruzain. As to the kind of experiment: Kinetic parameters of peptide substrates for cruzain. Format: biochemical. As to conditions: relative to Cbz-Phe-Arg-AMC. How it is done: All enzyme assays were performed at 25° C. Initial rates of the peptidolytic reaction catalyzed by cruzain were measured by monitoring the fluorescence generated by cleavage of the dipeptide-AMC bond. Assays were conducted in 96-well plates (Greiner; flat-bottom, clear black plates) in a total volume of 250 μL, containing either 50 mM MES (pH 7.5), 50 mM TAPSO, 100 mM DEA, 1 mM CHAPS, 1 mM Na2EDTA, 5 mM DTT, and 10% DMSO (v/v) or 50 mM sodium acetate (pH 5.5), 50 mM MES, 100 mM TEA, 1 mM CHAPS, 1 mM Na2EDTA, 5 mM DTT, and 10% DMSO (v/v). Substrates were dissolved in 100% DMSO and were then diluted 10-fold such that when added to reaction mixtures, final DMSO concentration was 10% (v/v). Reactions were initiated with the addition of 1-10 μL of cruzain (final concentrations: 0.1-3.0 nM (preincubation studies)). Fluorescence was measured on either a SpectraMax M5 (Molecular Devices) or a Synergy HTX (BioTek, Winooski, VT) microplate reader (λex=360 nm, λem=460 nm). Initial rates were determined from continuous kinetic time courses and calculated from the earliest time points, typically at less than 10 min.
Initial velocity data for cruzain-catalyzed reactions of fluorogenic peptide substrates were determined by fitting to eq 1 using GraphPad Prism 6.0 or SigmaPlot 12.0. For eq 1, kcat is the turnover number, [E]t is the concentration of active sites of cruzain, and Ka is the Michaelis constant for the substrate A. Cruzain concentrations were determined by spectrophotometric analysis of purified sample solutions as described.^44

Where [15] appears, read: Trypanosoma brucei, read-out: EC50 T. b. brucei BSF, axenic culture.
Where [16] appears, read: Trypanosoma cruzi, C2C12, C2C12 murine cardiomyoblasts.
Setting [17] is: read-out: EC50 T. b. brucei BSF, axenic culture.
[18] abbreviates: obtained >10 minutes following initiation of reaction by addition of enzyme, read-out: Ki* Cruzain.

Structures are written as SMILES. “And” between values parts separate entries of the source, which are not always exact repeats. Equal entries are not always repeated. Where two headings read alike, the source gives them in different places. Residues, ends and D or L forms follow the SMILES beside them. *: point of attachment. AMC = Cc1cc(=O)oc2cc(N*)ccc12; Cbz = O=C(OCc1ccccc1)*

T1 sequence (P25779 123-467 limits assumed): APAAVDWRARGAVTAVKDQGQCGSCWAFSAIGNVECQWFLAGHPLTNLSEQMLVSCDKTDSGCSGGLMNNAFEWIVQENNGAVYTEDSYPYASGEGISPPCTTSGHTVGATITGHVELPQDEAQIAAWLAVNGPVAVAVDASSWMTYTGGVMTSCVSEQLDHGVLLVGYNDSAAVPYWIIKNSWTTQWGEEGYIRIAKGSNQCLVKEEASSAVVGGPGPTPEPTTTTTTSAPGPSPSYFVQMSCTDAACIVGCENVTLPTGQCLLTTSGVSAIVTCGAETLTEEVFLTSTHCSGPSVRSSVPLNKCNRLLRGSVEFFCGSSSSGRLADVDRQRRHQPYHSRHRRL

On to `CN1CCN(C(=O)N[C@@H](Cc2ccccc2)C(=O)N[C@H](/C=C/c2ncccn2)CCc2ccccc2)CC1` [Compound 9, 4-Methyl-N—((S)-1-oxo-3-phenyl-1-(((S,E)-5-phenyl-1-(pyrimidin-2-yl)pent-1-en-3-yl)amino)propan-2-yl)piperazine-1-carboxamide], for which the EC50 was more than 20 µM in data set [1] (setting [15]), 20 µM in data set [3] and 5 to 8 µM in [4] (setting [16]). For the same compound, the CC50 at 48 h in [2] was more than 10 µM. The “T. cruzi axenic culture EC50” value in [3] is “poorly effective”. For the same compound, in [5] (apparent tight-binding inhibition constant, 25° C., read-out: Ki*), the Ki came to 2.2 ± 0.1 µM.

On to `O=C(N[C@@H](Cc1ccccc1)C(=O)N[C@H](/C=C/c1ccccn1)CCc1ccccc1)OCc1ccccc1` [Compound 13, Benzyl ((S)-1-Oxo-3-phenyl-1-(((S,E)-5-phenyl-1-(pyridin-2-yl)-pent-1-en-3-yl)amino)propan-2-yl)carbamate], for which the Ki in data set [6] (10% DMSO, read-out: Ki* Human Cathepsin L) is 1.9 ± 0.2 µM; in data set [8] (10% DMSO, read-out: Ki* Human Cathepsin B), 6.5 ± 0.9 µM. For the same compound, the EC50 was 4 ± 2 µM in data set [1] (setting [15]); more than 20 µM in data set [3]; 5.9 ± 0.3 µM in [4] (C2C12 murine cardiomyoblasts); 5 to 10 µM in [4] (setting [16]); 5.5 µM in data set [9] (Trypanosoma brucei); more than 10 µM in [9]. For the same compound, in data set [7], the CC50 is more than 100 µM. For the same compound, in data set [2], the CC50 at 48 h was more than 10 µM. Moreover, the “T. cruzi axenic culture EC50” value in data set [3] is “poorly effective”.

`COc1ccc2c(c1)CC(NC(=O)C(Cc1ccccc1)NC(=O)OCc1ccccc1)C(O)O2` (centres unmarked) [Compound 31]: the Ki in data set [6] (read-out: Ki* hCatL) was 0.038 ± 0.002 µM; in data set [11], more than 10 µM; in [8] (read-out: Ki* hCatB), 5.5 ± 0.4 µM; in data set [5] (setting [18]) it was 0.35 ± 0.03 µM. In addition, the EC50 is 3 to 11 µM in [10]; 3 µM and 2.6 µM in data set [1] (setting [17]); 2.5 µM and 2.5 to 7.5 µM in [12]; 11 µM in [9]. For the same compound, the “Ki* 3CLpro” value in data set [11] is given as “not an inhibitor of 3CL protease”.

Take `O=C(NC(Cc1ccccc1)C(=O)NC1Cc2cc(Cl)ccc2OC1O)OCc1ccccc1` (centres unmarked) [Compound 33]: the Ki was 0.027 ± 0.0007 µM in data set [6] (read-out: Ki* hCatL), more than 10 µM in data set [11] (pH 7.5), 1.4 ± 0.1 µM in [8] (read-out: Ki* hCatB) and 0.074 ± 0.01 µM in [5] (setting [18]). Further, the EC50 is 6 to 10 µM in data set [10]; 6 µM and 5.8 µM in [1] (setting [17]); 10 µM in data set [9].

With `O=C(NC(Cc1ccccc1)C(=O)NC1Cc2cc(F)ccc2OC1O)OCc1ccccc1` (centres unmarked) [Compound 34], the Ki was 0.023 ± 0.001 µM in [6] (read-out: Ki* hCatL), more than 10 µM in [11] (pH 7.5), 2.3 ± 0.2 µM in data set [8] (read-out: Ki* hCatB) and 0.048 ± 0.002 µM in data set [5] (setting [18]). In addition, the EC50 in [10] was 3 to 11 µM; in data set [1] (setting [17]) it was 2.7 µM; in data set [12], 4 µM and 2.5 to 7.5 µM; in data set [4] (C2C12 murine cardiomyoblasts) it was 3.5 µM and 3 to 5.7 µM; in data set [9], 11.1 µM.

Consider `Cc1cc(=O)oc2cc(NC(=O)[C@H](CCCN=C(N)N)NC(=O)[C@H](CCCN=C(N)N)NC(=O)OCc3ccccc3)ccc12` [Compound S6, Cbz-Arg-Arg-AMC] (Cbz-Arg-Arg-{AMC}), for which, in data set [13], the Km is 3.7 ± 0.4 µM, the kcat was 7.2 ± 0.1 s⁻¹ and the kcat/Km is 1.9e+06 ± 200000 M⁻¹ s⁻¹. Also, the kcat rel in data set [14] is listed as 0.75.

For the compound `Cc1cc(=O)oc2cc(NC(=O)C(C)NC(=O)C(Cc3ccccc3)NC(=O)OCc3ccccc3)ccc12` (stereo not drawn) [Compound S12, Cbz-Phe-Ala-AMC], in [13], the Km was 38 ± 2 µM, the kcat is 0.89 ± 0.06 s⁻¹ and the kcat/Km was 23000 ± 3000 M⁻¹ s⁻¹. For the same compound, the kcat rel in data set [14] was 0.09.
